Molecular target: T1, Cm33407BSH (Christensenella minuta, UniProt A0A8F5DVT9)
T1 construct: gene BSH
Assay: ninhydrin assay of released amino acid
Format: biochemical
Conditions: citrate buffer pH 6.0, 37 °C, 10 mM DTT, 5 mM substrate

T1 sequence (A0A8F5DVT9 entry or part of it): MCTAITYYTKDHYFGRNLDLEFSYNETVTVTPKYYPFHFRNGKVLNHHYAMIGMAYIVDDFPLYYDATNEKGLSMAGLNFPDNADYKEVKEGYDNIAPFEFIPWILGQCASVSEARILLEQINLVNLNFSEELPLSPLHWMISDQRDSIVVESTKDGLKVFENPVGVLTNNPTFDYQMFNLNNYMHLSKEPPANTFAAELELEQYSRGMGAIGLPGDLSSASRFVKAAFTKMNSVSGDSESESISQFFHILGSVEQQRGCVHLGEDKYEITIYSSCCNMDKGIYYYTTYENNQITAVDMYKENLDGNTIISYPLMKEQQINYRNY

Row | SMILES | specific activity
1 | C[C@H](CCC(=O)NCC(=O)O)[C@H]1CC[C@H]2[C@@H]3[C@H](O)C[C@@H]4C[C@H](O)CC[C@]4(C)[C@H]3CC[C@]12C [GCDCA] | displayed high specific activity values for the glycine conjugates GCA and GCDCA
2 | C[C@H](CCC(=O)NCC(=O)O)[C@H]1CC[C@H]2[C@@H]3[C@H](O)C[C@@H]4C[C@H](O)CC[C@]4(C)[C@H]3C[C@H](O)[C@]12C [GCA] | displayed high specific activity values for the glycine conjugates GCA and GCDCA
